Measurements from article PMC8777265, “The Environmental Pollutant Bromophenols Interfere With Sulfotransferase That Mediates Endocrine Hormones” (Frontiers in Endocrinology, 2022).

Legend:
Format in all cases: biochemical
SULT1A1 [1] = molecular target: T1, SULT1A1 (Homo sapiens, UniProt P50225); experiment: PNP sulfation, UPLC-UV, single-concentration screen; conditions: 40 µM PNP, 40 µM PAPS, 5 mM MgCl2, 100 mM Tris-HCl pH 7.4, 37 °C
T1 construct: recombinant human enzyme, commercial (BD Gentest)
T1 sequence (P50225 whole entry): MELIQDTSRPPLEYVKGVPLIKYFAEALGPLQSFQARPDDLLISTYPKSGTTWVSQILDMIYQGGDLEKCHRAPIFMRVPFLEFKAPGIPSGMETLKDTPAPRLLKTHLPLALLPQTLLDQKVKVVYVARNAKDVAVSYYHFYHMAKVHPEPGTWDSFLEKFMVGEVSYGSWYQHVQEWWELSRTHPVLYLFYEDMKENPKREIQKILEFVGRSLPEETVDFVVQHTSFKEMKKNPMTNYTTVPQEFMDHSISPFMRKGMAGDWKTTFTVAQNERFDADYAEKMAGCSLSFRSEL

SULT1B1 [2] = molecular target: T2, SULT1B1 (Homo sapiens, UniProt O43704); experiment: as above; conditions: 25 µM PNP, 40 µM PAPS, 5 mM MgCl2, 100 mM Tris-HCl pH 7.4, 37 °C
T2 construct: recombinant human enzyme, commercial (BD Gentest)
T2 sequence (O43704 whole entry): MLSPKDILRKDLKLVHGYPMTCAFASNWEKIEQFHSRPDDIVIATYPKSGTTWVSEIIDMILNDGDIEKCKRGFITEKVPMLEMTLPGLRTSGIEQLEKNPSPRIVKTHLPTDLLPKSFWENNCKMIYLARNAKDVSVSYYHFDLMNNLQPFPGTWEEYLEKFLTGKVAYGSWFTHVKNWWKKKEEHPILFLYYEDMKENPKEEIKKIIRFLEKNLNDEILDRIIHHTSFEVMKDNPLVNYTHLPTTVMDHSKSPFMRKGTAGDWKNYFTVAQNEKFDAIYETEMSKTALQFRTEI

SULT1A1 [3] = molecular target: T1, SULT1A1; experiment: PNP sulfation, UPLC-UV, […] inhibitor
SULT1E1 = molecular target: T3, SULT1E1 (Homo sapiens, UniProt P49888); experiment: PNP sulfation, UPLC-UV, […] inhibitor
T3 construct: recombinant human enzyme, commercial (BD Gentest)
T3 sequence (P49888 1-294): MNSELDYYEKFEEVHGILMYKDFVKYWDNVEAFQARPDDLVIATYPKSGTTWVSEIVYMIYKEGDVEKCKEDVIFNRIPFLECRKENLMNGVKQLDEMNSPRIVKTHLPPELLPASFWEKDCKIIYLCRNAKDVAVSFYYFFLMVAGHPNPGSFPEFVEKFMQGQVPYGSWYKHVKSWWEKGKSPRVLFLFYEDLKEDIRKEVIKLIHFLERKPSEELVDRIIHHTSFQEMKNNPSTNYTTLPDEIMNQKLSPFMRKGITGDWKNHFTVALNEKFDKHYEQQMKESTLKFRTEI

SULT1B1 [4] = molecular target: T2, SULT1B1; experiment: PNP sulfation, UPLC-UV, […] inhibitor
SULT1A3 [5] = molecular target: T4, SULT1A3 (Homo sapiens, UniProt P0DMM9); experiment: PNP sulfation, UPLC-UV, […] inhibitor
T4 construct: recombinant human enzyme, commercial (BD Gentest)
T4 sequence (P0DMM9 whole entry): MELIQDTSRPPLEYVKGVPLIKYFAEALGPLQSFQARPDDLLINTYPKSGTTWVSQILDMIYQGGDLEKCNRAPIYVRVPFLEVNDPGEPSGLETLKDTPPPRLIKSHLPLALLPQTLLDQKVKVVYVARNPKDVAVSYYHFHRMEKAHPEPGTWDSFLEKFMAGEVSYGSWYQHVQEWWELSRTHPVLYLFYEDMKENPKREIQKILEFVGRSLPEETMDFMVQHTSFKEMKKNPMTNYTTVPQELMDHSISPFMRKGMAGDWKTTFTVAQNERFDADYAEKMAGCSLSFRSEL

SULT1A3 [6] = molecular target: T4, SULT1A3; experiment: PNP sulfation, UPLC-UV, Lineweaver-Burk with slope replot

Oc1cccc(Br)c1 [3-BP]
% inhibition at 100 μM (SULT1A1 [1]): 3-BP and 4-BP only showed strong inhibition ability towards SULT1A1 and SULT1B1 | % inhibition at 100 μM (SULT1B1 [2]): 3-BP and 4-BP only showed strong inhibition ability towards SULT1A1 and SULT1B1

Oc1ccc(Br)cc1Br [2,4-DBP]
IC50 (SULT1A1 [3]): 1.03 µM | IC50 (SULT1E1): 3.24 µM | IC50 (SULT1B1 [4]): 4.22 µM | IC50 (SULT1A3 [5]): 25.5 µM

Oc1ccccc1Br [2-BP]
IC50 (SULT1A1 [3]): 1.03 µM | IC50 (SULT1E1): 25.9 µM | IC50 (SULT1B1 [4]): 1.07 µM | IC50 (SULT1A3 [5]): 8.88 µM

Oc1cc(Br)ccc1Br [2,5-DBP]
IC50 (SULT1A1 [3]): 1.24 µM | IC50 (SULT1B1 [4]): 5.42 µM | IC50 (SULT1A3 [5]): 12.9 µM

Oc1c(Br)cc(Br)cc1Br [2,4,6-TBP]
IC50 (SULT1A1 [3]): 1.02 µM | IC50 (SULT1E1): 6.06 µM | IC50 (SULT1B1 [4]): 1.06 µM | Ki (SULT1A3 [6]): 16.3 µM | IC50 (SULT1A3 [5]): 4.02 µM
